pIC50: −log10 of the molar value. Read-outs that look alike come from different tables or passages of the source.

For one test, the system named is PCA response. The test is described as follows: Passive Cutaneous Anaphylaxis (rat PCA). It counts as in vivo. The following applies: iv, i.v. just before ovalbumin challenge, male Wistar rats. As to the method: Serum containing heat labile homocytotropic antibody was raised in rats to crystallized ovalbumin XOA by the method of Mota (I. Mota, Immunology, 7, 681 (1964)) using Bordettela pertussis vaccine as adjuvant.
Passive cutaneous anaphylaxis (PCA) was carried out by a method based on that of Ovary and Bier (A. Ovary and O. G. Bier, Proc. Soc. Exp. Biol. Med 81, 584, (1952)) as modified by Goose and Blair.
Male Wistar rats of 250-300 g were given 0.1 ml of each of six twofold serial dilutions of pooled antiserum in 0.9% saline injected intradermally into separate sites on their shaved backs. Later (72 hr) the animals were challenged by intravenous injection of 0.3 ml of a 1% solution of ovalbumin in an isotonic solution of saline buffered with 0.5M, pH 7.2, Sorenson Buffer (PBS), mixed with 0.2 ml of a 5% solution of Pontamine Sky Blue (6BX C.I. 24410, Raymond A. Lamb, London) in isotonic saline. The rats were killed after 20 min and the diameter of the blue wheals at the antibody injection sites was measured on the outer surface of the skin. The starting dilution of the serum was adjusted so that there was no response, after challenge, at the injection site of the highest dilution and a maximum response at the lowest dilutions. Typically six twofold serial dilutions of the serum from 1/4 to 1/128 were used.
Compounds were tested for their ability to reduce the diameter of the wheels at those intradermal sites which in control animals gave less than maximum response. Each dose of the compound was administered intravenously to six rats in isotonic saline, adjusted to pH7 with sodium bicarbonate if necessary (2ml/kg body weight) just before intravenous challenge with ovalbumin. Control groups of six animals were given the same volume of carrier fluid at the same time.
The results were calculated as follows. % inhibition of PCA=100 (1 - a/b) where a=the sum of the diameters of the wheals produced in the test animal at the sites of antibody dilutions as used in control groups and b=the mean sum of the diameters of the wheals produced in the control group of animals at those antibody sites where at least five out of six of the animals gave less than maximum response. A typical variation in the control group of animals was SEN±6%.
The dose of the compound required to inhibit the PCA response by 50% was obtained from the log dose-response curve.

Test [1] relates to slow reacting substance of anaphylaxis (SRS-A). The test is described as follows: SRS-A antagonism on isolated guinea pig ileum. Set-up: species or system guinea pig ileum (SRS-A from rat). The following applies: rat SRS-A. The source says: The compounds have been evaluated as direct antagonists of slow reacting substance of anaphylaxis (SRS-A) by assay using the isolated guinea pig ileum.
SRS-A rat was obtained from the peritoneal cavity of the rat after passive peritoneal anaphylaxis by a method based on that of R. P. Orange, D. J. Stechschulte and K. F. Austen, J. Immunology, 105 1087 (1970) as described by B. A. Spicer, J. W. Ross and H. Smith, Clin. exp. Immunol. 1975, 21, 419. The sensitizing serum containing reaginic antibody was produced in rats as described by B. A. Spicer, et. al. ibid.
2 ml of a 1 in 5 dilution of the sensitizing serum was injected by the peritoneal route into recipient rats and after 2 hours, 5 ml of tyrode solution containing 0.4 mg/ml ovalbumin (Sigma Grade III) and 50 μg/ml heparin was injected by the same route. Five minutes after challenge the rats were stunned and bled and the peritoneal fluids collected into polycarbonate tubes in ice. After centrifugation at 150 g for 5 minutes the supernatants were combined, heated in a boiling water bath for 5 minutes, cooled and stored at -20° C. The combined peritioneal fluids contained SRS-A and were used in the antagonism studies.
The SRS-A assays were carried out on isolated strips of guinea pig ileum in tyrode solution containing atropine 5 × 10^-7 M and mepyramine 10^-6 M as described by W. E. Brocklehurst, J. Physiology, 151, 416 (1960).
The activity of the antagonists was determined by their ability to reduce submaximal responses induced by SRS-A. The antagonists were added to a 4 ml bath in 0.1 ml volumes in aqueous solution half a minute before the addition of SRS-A and were present during induced contraction. Two or three concentrations of antagonists were used and the percentage inhibition of the SRS-A response plotted against the bath concentration of antagonist. The line of best fit was drawn and the concentration to cause 50% inhibition IC50 read graphically.

Where [2] appears, read: read-out: Rat PCA: Dose given i.v. to effect a 50% inhibition of the PCA response.
[3] abbreviates: as first table, unit inferred, isolated guinea pig ileum, read-out: SRS-A antagonism on Guinea Pig Ileum: Approximate concentration to give inhibition of a than maximal response to SRS-A.
Where [4] appears, read: isolated guinea pig ileum strips, tyrode with atropine and mepyramine, 50% inhibition per method, read-out: SRS-A antagonism on Guinea Pig Ileum: Approximate concentration to give inhibition of a than maximal response to SRS-A.
[5] abbreviates: second results table, unit inferred, isolated guinea pig ileum, read-out: SRS-A antagonism on Guinea Pig ileum: Approximate concentration to give 50% inhibition of a less than maximal response to SRS-A.
Setting [6] is: second results table, read-out: Rat PCA: Dose given i.v. to effect a 50% inhibition of PCA response.

With `O=c1oc2cc(OCCc3ccc(F)cc3)ccc2c(O)c1[N+](=O)[O-]` [Example 117], the ED50 in the test with PCA response (setting [2]) is 1 mg/kg.
Same read-out and setting: with `CCCc1c(OCCOc2ccc3c(O)c([N+](=O)[O-])c(=O)oc3c2)ccc(C(C)=O)c1O` [Example 127, 7-(2-[4-Acetyl-3-hydroxy-2-n-propylphenoxy]ethoxy)-4-hydroxy-3-nitrocoumarin] the figure was ~2 mg/kg.
Same read-out and setting: under `CCCc1cc(C(C)=O)ccc1OCC(O)COc1ccc2c(O)c([N+](=O)[O-])c(=O)oc2c1` (centres unmarked) [Example 142, 7-(3-[4-Acetyl-2-n-propylphenoxy]-2-hydroxypropoxy)-4-hydroxy-3-nitrocoumarin] stands < 1 mg/kg; under `CCc1cc(C(C)=O)c(O)cc1OCC(O)COc1ccc2c(O)c([N+](=O)[O-])c(=O)oc2c1` (centres unmarked) [Example 145, 7-(3-[4-Acetyl-2-ethyl-5-hydroxy-phenoxy]-2-hydroxy-propoxy)-4-hydroxy-3-nitrocoumarin], 2 mg/kg.
Consider `CCCc1c(OCC(O)COc2ccc3c(O)c([N+](=O)[O-])c(=O)oc3c2C)ccc(C(C)=O)c1O` (centres unmarked) [Example 147, 7-(3-[4-Acetyl-3-hydroxy-2-n-propyl-phenoxy]-2-hydroxy-propoxy)-4-hydroxy-8-methyl-3-nitro-coumarin], for which the pIC50 in test [1] (setting [3]) was 8.00. Further, the ED50 in the test with PCA response (setting [2]) is < 2 mg/kg.
With `CCCc1c(OCC(O)COc2ccc3c(O)c([N+](=O)[O-])c(=O)oc3c2CCC)ccc(C(C)=O)c1O` (centres unmarked) [Example 148, 7-(3-[4-Acetyl-3-hydroxy-2-n-propyl-phenoxy]-2-hydroxy-propoxy)-4-hydroxy-3-nitro-8-n-propyl-coumarin], the pIC50 in test [1] (setting [4]) is 7.00. Also, in the test on PCA response (setting [2]), the ED50 was < 1 mg/kg.
As to `CCCc1c(OCC(O)COc2ccc3c(O)c([N+](=O)[O-])c(=O)oc3c2)ccc(C(=O)CC)c1O` (centres unmarked) [Example 149], in the test on PCA response (setting [2]), the ED50 is 2 mg/kg.
Regarding `O=c1oc2cc(OCCCCCCOc3ccccc3)ccc2c(O)c1[N+](=O)[O-]` [Example 154, 4-Hydroxy-3-nitro-7-(6-phenoxyhexoxy) coumarin], in test [1] (setting [4]), the pIC50 was 5.00. In addition, the ED50 in the test on PCA response (setting [2]) was 1 to 2 mg/kg.
On the same counts, the results for `Cc1ccccc1OCCCOc1ccc2c(O)c([N+](=O)[O-])c(=O)oc2c1` [Example 155, 4-Hydroxy-7-(3-[2-methylphenoxy]propoxy)-3-nitrocoumarin] are 7.00 and 1 to 2 mg/kg.
On to `CCCc1cc(F)ccc1OCC(O)COc1ccc2c(O)c([N+](=O)[O-])c(=O)oc2c1` (centres unmarked) [Example 164, 7-(3-[4-Fluoro-2-hydroxypropoxy)-4-hydroxy-3-nitro-coumarin], for which the pIC50 in test [1] (setting [3]) was 7.00. Besides, in the test on PCA response (setting [2]), the ED50 is 1 mg/kg.
Regarding `CCCc1c(O)c(C(C)=O)cc([N+](=O)[O-])c1OCCOc1ccc2c(O)c([N+](=O)[O-])c(=O)oc2c1` [Example 165, 7-[2-(4-Acetyl-3-hydroxy-6-nitro-2-n-propylphenoxy)ethoxy]-4-hydroxy-3-nitrocoumarin], in the test on PCA response (setting [2]), the ED50 is 1 mg/kg.
`CCCc1c(O)c(C(C)=O)cc([N+](=O)[O-])c1OCC(O)COc1ccc2c(O)c([N+](=O)[O-])c(=O)oc2c1C` (centres unmarked) [Example 166, 7-[3-(4-Acetyl-3-hydroxy-6-nitro-2-n-propylphenoxy)-2-hydroxypropoxy]-4-hydroxy-8-methyl-3-nitrocoumarin]: the pIC50 in test [1] (setting [3]) is 7.00. Besides, the ED50 in the test with PCA response (setting [2]) was < 1 mg/kg.
In the case of `O=C1c2ccc(OCCCOc3ccccc3)cc2C(=O)C1[N+](=O)[O-]` (centres unmarked) [Example 182, 2-Nitro-5-(3-phenoxypropoxy)indan-1,3-dione], the pIC50 in test [1] (setting [5]) is 7.00. The ED50 in the test with PCA response (setting [6]) was < 1 mg/kg.
For the molecule `O=C1c2ccc(OCCCc3ccccc3)cc2C(=O)C1[N+](=O)[O-]` (centres unmarked) [Example 183, 2-Nitro-5-(3-phenylpropoxy)indan-1,3-dione], the ED50 in the test with PCA response (setting [6]) is < 1 mg/kg.
For `Cc1cc(C)c(C)c(OCCCOc2ccc3c(c2)C(=O)C([N+](=O)[O-])C3=O)c1` (centres unmarked) [Example 184, 2-Nitro-5-[3-(2,3,5-trimethylphenoxy)propoxy]indan-1,3-dione], the pIC50 in test [1] (setting [5]) was 6.00. The ED50 in the test on PCA response (setting [6]) turned out to be 1 mg/kg.
As for `Cc1cc2c(cc1OCCCOc1ccccc1)C(=O)C([N+](=O)[O-])C2=O` (centres unmarked) [Example 185, 5-Methyl-2-nitro-6-(3-phenoxypropoxy)indan-1,3-dione], the pIC50 in test [1] (setting [5]) was 6.00.
Turning to `N#CC1C(=O)c2ccc(OCCCOc3ccccc3)cc2C1=O` (centres unmarked) [Example 188, 2-Cyano-5-(3-phenoxypropoxy)indan-1,3-dione], the pIC50 in test [1] (setting [5]) was 6.00. Besides, the ED50 with PCA response (setting [6]) is > 2 mg/kg.
Regarding `N#CC1C(=O)c2ccc(OCCc3ccccc3)cc2C1=O` (centres unmarked) [Example 189, 2-Cyano-5-(2-phenylethoxy)indan-1,3-dione], the pIC50 in test [1] (setting [5]) is 6.00.
As to `N#Cc1c(O)c2ccc(OCCCOc3ccccc3)cc2oc1=O` [Example 204, 3-Cyano-4-hydroxy-7-(3-phenoxypropoxy) coumarin], the pIC50 in test [1] (setting [5]) is 6.00. Further, the ED50 in the test on PCA response (setting [6]) came out at 2 mg/kg.
